For the assay, the system named is African Green monkeys. Put plainly: IOP after intravitreal injection in African Green monkeys, compared with PBS in the fellow eye. The format is in vivo, African Green monkey. To be noted: for animals responding with a reduction in IOP of ≥30%: 4 animals. Here is the method:
Eight African Green monkeys were screened to identify 4 animals with high-normal IOP. Animals were anesthetized with ketamine 10 mg/kg and Xylazine 0.5 mg/kg. Bimatoprost acid 100 ng in 50 μl was injected intravitreally in one eye through a 30-gauge syringe using a shelved technique, and 50 μl of phosphate buffered saline (PBS) was injected into the fellow eye as a concurrent control on days 0, 1, 2 at 8:30 pm. The bimatoprost acid dose was escalated to 200 ng in 100 μl, with the same volume of PBS given to the fellow eye, on days 3 (8:30 pm) and 4 (5:30 pm). IOP was measured with a Tonovet tonometer at 8:30 am, 11:30 am and 8:30 pm on day 1; 8:30 am, 11:30 am and 5:30 pm on day 4; and at 8:30 am on days 2, 3 and 5. The person measuring the IOP was masked to treatment assignment. Slit lamp exams were performed on day 0, 1 and 5. OCTs were performed at baseline and day 5.

A value given as a limit tells only on which side of the number the result lay.

1 compound from patent US11147855B2, “Methods for treating glaucoma or ocular hypertension comprising delivery of prostaglandins to the vitreous humour” (Cella Therapeutics, LLC, priority 2018, dated 2021) can be followed below.

`O=C(O)CCC/C=C\C[C@@H]1[C@@H](/C=C/[C@@H](O)CCc2ccccc2)[C@H](O)C[C@@H]1O` [bimatoprost acid]: the “animals responding with a reduction in IOP of ≥30%” value is recorded as “One of four” (100 ng dose intravitreal) and “Three of four” (200 ng dose intravitreal). For the same compound, the “reduction in IOP compared with the fellow eye” value is, setting by setting: (100 ng in 50 μl intravitreal, days 0, 1, 2, animal B392, at 1 timepoint) not below 30%; (200 ng in 100 μl intravitreal, days 3 and 4, responding animals, at 1 or more timepoints) not below 30%. The “IOP reduced in the treated eye compared with the fellow eye receiving PBS” value (200 ng dose, animal B392, day 5) came to 52%. The IOP response result (animal B300, 100 ng and 200 ng doses) was “did not respond to either dose”.
